According to the Deep4Chem optical property database:

Experiment: solvent given as SMILES

For `c1ccc2c(c1)ccc1c3ccccc3ccc21`, the absorption maximum (in ClCCl) was 322 nm.

Work on `CCCCCCn1c(=O)c2c3nc4cc5sc6c(nc5cc4sc3c3c(=O)n(CCCCCC)c(=O)c3c2c1=O)c1c(=O)n(CCCCCC)c(=O)c1c1c(=O)n(CCCCCC)c(=O)c61` yielded an absorption maximum (in ClCCl) of 633 nm.

Work on `CC(C)(C)Nc1cc(F)c(C(=O)c2cc(F)c(NC(C)(C)C)cc2F)cc1F` yielded an absorption maximum (in CCO) of 348 nm.

`Nc1cc2nc3cc(Cl)c(Cl)cc3nc2cc1N` gave an absorption maximum (in CCO) of 442 nm.

`CC1(C)C(/C=C/C2=C(c3ccc(C(=O)O)cc3)C(=C/C=C3/N(CCCCS(=O)(=O)[O-])c4ccccc4C3(C)C)/CC2)=[N+](CCCCS(=O)(=O)[O-])c2ccccc21` showed an absorption maximum (in CO) of 797 nm.

`F[B-]1(F)n2c(c(-c3ccccc3)c(-c3cccs3)c2-c2ccccc2)N=C2C(c3ccccc3)=C(c3cccs3)C(c3ccccc3)=[N+]21` gave an absorption maximum (in ClCCl) of 650 nm.

`Cc1ccc2nc3cc4c(cc3c(-c3ccccc3)c2c1)[Si](C)(C)O[Si](C)(C)O[Si]4(C)C` gave an absorption maximum (in ClCCl) of 371 nm.

Work on `N#CC(C#N)=Cc1ccc(-c2ccc(N(c3ccccc3)c3ccccc3)cc2)s1` yielded an absorption maximum (in ClC(Cl)Cl) of 506 nm.

`Cn1c(=O)cc(C(=O)c2ccccc2)c2sc(-c3ccc(N(c4ccccc4)c4ccccc4)cc3)cc21` showed an absorption maximum (in CC#N) of 430 nm and an absorption maximum (in ClCCl) of 438 nm.

Compound `Oc1ccc2ccccc2c1/C=N/C1CCCCC1/N=C/c1c(O)ccc2ccccc12` (centres undefined) has an absorption maximum (in CC#N) of 397 nm.

`CCCCCCN1C(=O)c2cccc3c(-c4ccc([N+](=O)[O-])s4)ccc(c23)C1=O` gave an absorption maximum (in ClC(Cl)Cl) of 363 nm.

In the case of `CCOC(=O)C1=C(C(=O)OC)N2CCc3cc(OC)c(OC)cc3C2=C[C@H](c2ccc(Cl)cc2)C12c1ccccc1-c1ccccc12`, the absorption maximum (in ClCCl) is reported as 310 nm.

For `C(#Cc1c2ccccc2c(-c2ccccc2)c2cc3ccccc3cc12)c1ccccc1`, the absorption maximum (in ClCCl) was 522 nm.

In the case of `Cn1nc(-c2ccccc2)c2n[nH]nc2/c1=N\c1ccccn1`, the absorption maximum (in CC#N) is reported as 402 nm, the absorption maximum (in CCO) is reported as 382 nm and the absorption maximum (in Cc1ccccc1) is reported as 410 nm.

With `COc1c(Br)c2cc(=O)oc3ccc4cccc1c4c32` the absorption maximum (in CC1CCCO1) was 475 nm.

Compound `CCOC(=O)c1ccccc1-c1c2ccc(=[N+](CC)CC)cc-2oc2c1oc1cc(N)ccc12` has an absorption maximum (in CCO) of 590 nm, an absorption maximum (in ClCCl) of 587 nm and an absorption maximum (in O) of 588 nm.

In the case of `CC(C)(C)c1cc2c3c(c1)-c1cccc4c1N(B3N1c3ccccc3Sc3cccc-2c31)c1ccccc1S4`, the absorption maximum (in C1CCOC1) is reported as 381 nm.

`[NH3+]c1cc([NH3+])cc(-c2[nH+]c3ccccc3s2)c1` showed an absorption maximum (in O) of 328 nm.

In the case of `O=C1C=C(Nc2ccc([N+](=O)[O-])cc2[N+](=O)[O-])C(=O)c2ccccc21`, the absorption maximum (in CO) is reported as 437 nm.

In the case of `CCN(CC)c1ccc2c(-c3ccccc3C(=O)O)c3c([o+]c2c1)/C(=C/c1nc(C)n2ccccc12)CCC3`, the absorption maximum (in ClCCl) is reported as 701 nm.

In the case of `CCc1ccccc1-c1c2ccccc2c(C#Cc2ccccc2)c2cc3ccccc3cc12`, the absorption maximum (in ClCCl) is reported as 522 nm.

`CCCCCCn1c2cc(/C=C(\C#N)c3ccccc3)ccc2c2ccc(/C=C(\C#N)c3ccccc3)cc21` showed an absorption maximum (in ClC(Cl)Cl) of 423.73 nm.

Compound `Cc1ccc(C)n1-c1cccc(C#N)c1` has an absorption maximum (in ClCCl) of 259 nm.

In the case of `COC(=O)/C(C#N)=c1\s/c(=c2/s/c(=C(/C#N)C(=O)OC)c3cc(-c4ccc5c(c4)C(C)(C)c4ccccc4-5)sc23)c2sc(-c3ccc4c(c3)C(C)(C)c3ccccc3-4)cc12`, the absorption maximum (in Cc1ccccc1) is reported as 630 nm.

`CC1(C)C(/C=C/C2=C(c3ccc(C(=O)O)cc3)C(=C/C=C3/N(CCCCS(=O)(=O)[O-])c4ccccc4C3(C)C)/CCC2)=[N+](CCCCS(=O)(=O)[O-])c2ccccc21` gave an absorption maximum (in CO) of 765 nm.

`CCN(CC)c1ccc2cc(-c3nc4cc(C(=O)Nc5ccccc5)ccc4o3)c(=O)oc2c1` showed an absorption maximum (in ClCCl) of 442 nm.

`CCCC1=Cc2nc1ccc1[nH]c(cc1CCO)c1nc(ccc3[nH]c2cc3CCC)C(CCO)=C1` gave an absorption maximum (in Cc1ccccc1) of 638 nm.

With `COc1cc(OC)c2c(c1)C(=O)c1ccc(OC)cc1-2` the absorption maximum (in C1CCCCC1) was 422 nm, the absorption maximum (in CC#N) was 441 nm and the absorption maximum (in CCO) was 442 nm.

Compound `CCCCN1C(=O)c2cc(Oc3ccc(C(C)(C)C)cc3)c3c4c(Oc5ccc(C(C)(C)C)cc5)cc5c(=O)[nH]/c(=C\c6ccccn6)c6cc(Oc7ccc(C(C)(C)C)cc7)c(c7c(Oc8ccc(C(C)(C)C)cc8)cc(c2c37)C1=O)c4c56` has an absorption maximum (in ClCCl) of 615 nm.

`CN1/C(=C/C2=C([O-])C(=O)C2=C2C(=O)NC(=O)NC2=O)C(C)(C)c2ccccc21` gave an absorption maximum (in CCO) of 457 nm.

With `Cc1cc2c(o1)c(C)cc1ccc(=O)oc12` the absorption maximum (in C1CCCCC1) was 330 nm, the absorption maximum (in C1COCCO1) was 315 nm and the absorption maximum (in CC#N) was 315 nm. It also gave an absorption maximum (in CCO) of 305 nm and an absorption maximum (in OCC(F)(F)F) of 310 nm.

Work on `COC(=O)C1=C(C(=O)OC)C2(c3ccccc3-c3ccccc32)[C@@H](c2ccc(C)cc2)C=C2c3cc(OC)c(OC)cc3CCN21` yielded an absorption maximum (in ClCCl) of 311 nm.

For `COc1cc(OC)cc(C2=C3C(C)=C(I)C(C)=[N+]3[B-](F)(F)n3c(C)c(I)c(C)c32)c1`, the absorption maximum (in CS(C)=O) was 538 nm.

Work on `O=C1c2ccccc2C2=Nc3cccc4cccc(c34)N12` yielded an absorption maximum (in ClCCl) of 448 nm.

In the case of `CN(C)c1ccc(/C=C/c2nc3ccccc3s2)cc1`, the absorption maximum (in C1CCCCC1) is reported as 384 nm, the absorption maximum (in C1CCOC1) is reported as 396 nm and the absorption maximum (in C1COCCO1) is reported as 393 nm. The absorption maximum (in CC#N) was 401 nm, the absorption maximum (in CC(C)O) was 394 nm and the absorption maximum (in CCCCCC) was 384 nm. The absorption maximum (in CCCCCCC) was 387 nm, the absorption maximum (in CCO) was 396 nm and the absorption maximum (in CCOC(C)=O) was 391 nm. For the same compound, the absorption maximum (in CCOCC) was 390 nm, the absorption maximum (in CN(C)C=O) was 402 nm and the absorption maximum (in CO) was 397 nm. For the same compound, the absorption maximum (in CS(C)=O) was 405 nm, the absorption maximum (in O) was 402 nm and the absorption maximum (in OCC(O)CO) was 409 nm.

For `c1ccc(-c2nc3c4ccccc4c4ccccc4c3n2-c2ccccc2)cc1`, the absorption maximum (in C1CCOC1) was 362 nm.

With `Cc1cc(C)c(B(c2c(C)cc(C)cc2C)c2cc3ccc4ccccc4c3c3c2cc(N(C)C)c2ccccc23)c(C)c1` the absorption maximum (in C1CCCCC1) was 438 nm, the absorption maximum (in C1CCOC1) was 439 nm and the absorption maximum (in CC#N) was 437 nm. For the same compound, the absorption maximum (in ClC(Cl)Cl) was 440 nm and the absorption maximum (in c1ccccc1) was 440 nm.

`CC1(C)c2ccccc2N(c2ccc(-c3nc([C@]45CC6CC(C[C@@H](C6)C4)C5)nc([C@]45C[C@H]6C[C@@H](C[C@H](C6)C4)C5)n3)cc2)c2ccccc21` gave an absorption maximum (in Cc1ccccc1) of 367.8 nm.

Compound `CCN(CC)c1ccc(-c2nc(Oc3ccc(-c4nc5cc([N+](=O)[O-])ccc5[nH]4)cc3)nc(Oc3ccc(-c4nc5cc([N+](=O)[O-])ccc5[nH]4)cc3)n2)cc1` has an absorption maximum (in CN(C)C=O) of 383 nm.

In the case of `Cc1ccc(C2CC(c3ccc(O)cc3)=NN2c2ccc(S(N)(=O)=O)cc2)cc1` (centres undefined), the absorption maximum (in C1CCOC1) is reported as 359 nm, the absorption maximum (in C1COCCO1) is reported as 360 nm and the absorption maximum (in CC#N) is reported as 358 nm. It also gave an absorption maximum (in CC(C)O) of 358 nm, an absorption maximum (in CCO) of 358 nm and an absorption maximum (in CCOC(C)=O) of 358 nm. The absorption maximum (in CN(C)C=O) was 362 nm, the absorption maximum (in CO) was 357 nm and the absorption maximum (in CS(C)=O) was 364 nm. For the same compound, the absorption maximum (in O) was 360 nm.

`CCOC(=O)c1c(-c2cc3ccccc3oc2=O)nn(-c2ccc(C)c(C)c2)c1C(=O)OCC` gave an absorption maximum (in ClCCl) of 322 nm.

`Oc1ccccc1/C=N/CC/N=C/c1ccccc1O` showed an absorption maximum (in CC#N) of 396 nm.

With `CCN(CC)c1ccc2c(c1)oc(=O)c1cnc3c(c(C)nn3-c3ccccc3)c12` the absorption maximum (in ClCCl) was 404 nm.

`CCC12C(=C3C(=C4c5ccc(-c6ccc(C)s6)cc5S(=O)(=O)C41CC)C(F)(F)C(F)(F)C3(F)F)c1ccc(-c3ccc(C)s3)cc1S2(=O)=O` (centres undefined) showed an absorption maximum (in C1COCCO1) of 506 nm, an absorption maximum (in CC#N) of 507 nm and an absorption maximum (in CCCCCC) of 489 nm. The absorption maximum (in CCO) was 508 nm, the absorption maximum (in CS(C)=O) was 525.37 nm and the absorption maximum (in ClC(Cl)(Cl)Cl) was 497.35 nm. For the same compound, the absorption maximum (in ClCCl) was 507.67 nm.

With `CCCC1=C(CCC)c2cccc3c2c(cc2nc4ccccc4nc23)O1` the absorption maximum (in ClCCl) was 499 nm.

With `[NH3+]C(Cc1ccc(O)cc1)C(=O)[O-]` (centres undefined) the absorption maximum (in O) was 274 nm.

`Cc1cc(C)c(B(c2c(C)cc(C)cc2C)c2cc3cc(N(C)C)c4ccccc4c3c3c2ccc2ccccc23)c(C)c1` showed an absorption maximum (in C1CCCCC1) of 430 nm, an absorption maximum (in C1CCOC1) of 431 nm and an absorption maximum (in CC#N) of 429 nm. The absorption maximum (in ClC(Cl)Cl) was 431 nm and the absorption maximum (in c1ccccc1) was 433 nm.

With `c1ccc(-c2nc(-c3ccccc3)nc(-c3ccc(-n4c5ccccc5c5cc(-n6c7ccccc7c7ccccc76)ccc54)cc3)n2)cc1` the absorption maximum (in Cc1ccccc1) was 367 nm.

`CCCCN1C(=O)c2cc(Oc3ccc(C(C)(C)C)cc3)c3c4c(Oc5ccc(C(C)(C)C)cc5)cc5c(=O)[nH]/c(=C\c6ccc7ccccc7n6)c6cc(Oc7ccc(C(C)(C)C)cc7)c(c7c(Oc8ccc(C(C)(C)C)cc8)cc(c2c37)C1=O)c4c56` gave an absorption maximum (in ClCCl) of 626 nm.

Compound `CCC1=C(C)C(=O)n2c1cc1c(C)c(CC(=O)OC)c(C)n1c2=O` has an absorption maximum (in CC#N) of 413 nm, an absorption maximum (in CC(C)=O) of 413 nm and an absorption maximum (in CO) of 420 nm. The absorption maximum (in CS(C)=O) was 421 nm, the absorption maximum (in ClC(Cl)Cl) was 423 nm and the absorption maximum (in c1ccccc1) was 416 nm.

With `Cn1c(=O)c(/N=N/c2ccc(S(=O)(=O)O)c3ccccc23)c(O)c2ccccc21` the absorption maximum (in C1CCOC1) was 467 nm, the absorption maximum (in CC(C)=O) was 465 nm and the absorption maximum (in CCOC(C)=O) was 464 nm. The absorption maximum (in CO) was 468 nm, the absorption maximum (in CS(C)=O) was 470 nm and the absorption maximum (in Cc1ccccc1) was 469 nm. The absorption maximum (in ClCCl) was 467 nm and the absorption maximum (in O) was 456 nm.

With `C1=C(c2ccccc2)C(c2ccccc2)C(c2ccccc2)=C1` the absorption maximum (in C1CCOC1) was 304 nm.

For `CCCCN(CCCC)c1ccc2c(c1)C#CC#Cc1cc(N(CCCC)CCCC)ccc1C#Cc1cc(c3cc1C#Cc1ccc(C(F)(F)F)cc1C#CC#Cc1cc(C(F)(F)F)ccc1C#C3)C#C2`, the absorption maximum (in ClCCl) was 466 nm.

With `N#Cc1cc2ccc(O)cc2oc1=O` the absorption maximum (in C1CCCCC1) was 361 nm, the absorption maximum (in C1CCOC1) was 355 nm and the absorption maximum (in CC#N) was 352 nm. The absorption maximum (in CCOC(C)=O) was 356 nm, the absorption maximum (in CS(C)=O) was 351 nm and the absorption maximum (in ClC(Cl)Cl) was 359 nm. It also gave an absorption maximum (in O) of 355 nm.

Compound `O=C1NC(c2ccccc2)=C/C1=C\c1ccccc1` has an absorption maximum (in C1COCCO1) of 422 nm.

In the case of `CCOC(=O)c1ccc(C2=C(c3ccccc3)c3oc4ccccc4[n+]3[B-](F)(F)O2)cc1`, the absorption maximum (in C1CCOC1) is reported as 350 nm.

`O=CC1=Cc2cocc2C=C(C=O)C1` showed an absorption maximum (in ClC(Cl)Cl) of 303 nm.

Work on `CCN(CC)c1ccc2c(c1)oc(=O)c1cc3c(-c4ccccc4)nn(C)c3nc12` yielded an absorption maximum (in ClCCl) of 350 nm.
